Data from patent US8623820B2, “FGF-9 and its use relating to blood vessels” (University of Western Ontario, priority 2008, dated 2014).

Columns and labels:
Sonic Hedgehog signaling = experiment: Matrigel plug with cyclopamine, CD31 / SM α-actin immunostaining; assay type: in vivo, mice; conditions: FGF-2+FGF-9 plugs with 500 nM cyclopamine
Experimental: FIG. 15A. RT-PCR of human aortic SMCs stimulated with increasing concentrations of recombinant FGF-9 for 24 h. 15B, RT-PCR of human aortic SMCs overexpressing cDNA encoding GFP or FGF-9. 15C, Western Blots of C57/Bl6 dermal fibroblasts pretreated with either DMSO or 500 nM cyclopamine and subsequently stimulated with vehicle or FGF-9 for 24 hr. 15D. Photomicrographs of FGF-2 and FGF-9 containing matrigel plugs with either DMSO or cyclopamine double immunolabeled for CD31 (brown) and sm α-actin (red). E Quantitation of SM α-actin coverage of CD31-positive vessels representative of 6 mice bearing FGF-2 or FGF-2+FGF-9 with either vehicle or 500 nM cyclopamine (79±4 vs 38±4.8, p<0.05).

[1] = system: microvessels in matrigel plug; experiment: Intravital vasoreactivity of matrigel plug microvessels; assay type: in vivo, mice; conditions: 14 days after matrigel injection
Experimental: 14 days after matrigel injection mice were anesthetized, the skin overlying a matrigel was surgically removed and a catheter to deliver drugs was sutured in the region of the plug. FITC-labeled dextran was injected via tail vein and the diameter of vessels in the matrigel plug was visualized using an inverted fluorescent microscope. Doses of vasoconstrictors indicated in FIG. 9 were applied and images of vessels were acquired over 5 minutes.
In separate experiments, doses of the vasoconstrictor PE followed by the vasodilator were applied to the blood vessels in matrigel plugs.

[2] = system: SM α-actin positive cells on CD31 nascent blood vessels; experiment: Matrigel plug, SM α-actin coverage of CD31-positive vessels in 200 μm sections; assay type: in vivo, mice; conditions: 200 μm thick sections, 8 days after implantation
Source text: Photomicrographs of Matrigel plugs harvested 8 days after implantation, cut into 200 μm thick-sections and immunostained for CD31 (left panel) and SM α-actin (central panel) and quantitation of SM α-actin coverage of CD31-positive vessels.

[3] = system: SM α-actin expressing mural cells at nascent microvessels; experiment: Matrigel plug, CD31 / SM α-actin immunostaining of 8 μm sections; assay type: in vivo, C57/Bl6 mice; conditions: 8 days after implantation
Source text: Photomicrographs of 8 μm-thick sections of Matrigel plugs harvested 8 days after implantation into C57/Bl6 mice and immunostained for CD31 (brown) and smooth muscle α-actin (red) and quantification of the percentage of microvessels supported by smooth muscle (SM) α-actin positive cells.

[4] = system: CD31-positive endothelial cell-lined microvessels; experiment: Subcutaneous matrigel plug angiogenesis, CD31 immunostaining; assay type: in vivo, C57/Bl6 mice
Experimental: Matrigel plugs were mixed with either 500 ng/mL FGF-9, 500 ng/mL FGF-2 or 500 ng/mL FGF-2 and 200 ng/mL FGF-9 and subcutaneously injected into 3 month old C57/Bl6 mice. Mice were sacrificed and matrigel plugs were harvested 8 days after implantation and immunostained for CD31 (brown), to identify endothelial cell-lined microvessels.
CD31-positive microvessels immunostained in FIGS. 5B and 5C are quantified.

Compound | SM α-actin coverage of CD31-positive vessels (Sonic Hedgehog signaling) | constriction of microvessels in response to phenylephrine (PE) and KCl [1] | SM α-actin positive cell coverage of CD31 nascent blood vessels [2] | percentage of microvessels supported by smooth muscle (SM) α-actin positive cells [3] | area of CD31-positive microvessels ([4]; matrigel plugs, 8 days after implantation) | angiogenesis, CD31 immunoreactivity inside the matrigel ([4]; plugs with 500 ng/mL FGF-9, 500 ng/mL FGF-2 or 500 ng/mL FGF-2 and 200 ng/mL FGF-9, harvested 8 days after implantation)
CC1=C2C[C@H]3[C@@H](CC=C4C[C@@H](O)CC[C@@]43C)[C@@H]2CC[C@]12O[C@@H]1C[C@H](C)CN[C@H]1[C@H]2C [cyclopamine] | 38±4.8 |  |  |  |  | 
FGF-2: fibroblast growth factor 2, angiogenic polypeptide used as comparator and co-factor |  | mild if any response | 7.2±1.8% | 37±5.4% | equivalent levels of angiogenesis | induce angiogenesis
